We go through ten compounds from article PMC12612596, “Real‐time FRET assay for monitoring detyrosination by TMCP1 and VASH2” (Protein Science : A Publication of the Protein Society, 2025).

Like-named read-outs stand apart in the source and are kept apart here. Where a SMILES comes first, the peptide text is derived from it.

Data set [1] has as its target T1, TMCP1 (Homo sapiens, UniProt Q68EN5).
T1 construct: TMCP1 open Reading Frame (ORF) was cloned into pET28A+; 6His (N); made in house; host or cells: Escherichia coli BL21 Star (DE3)
T1 sequence (Q68EN5 1-471): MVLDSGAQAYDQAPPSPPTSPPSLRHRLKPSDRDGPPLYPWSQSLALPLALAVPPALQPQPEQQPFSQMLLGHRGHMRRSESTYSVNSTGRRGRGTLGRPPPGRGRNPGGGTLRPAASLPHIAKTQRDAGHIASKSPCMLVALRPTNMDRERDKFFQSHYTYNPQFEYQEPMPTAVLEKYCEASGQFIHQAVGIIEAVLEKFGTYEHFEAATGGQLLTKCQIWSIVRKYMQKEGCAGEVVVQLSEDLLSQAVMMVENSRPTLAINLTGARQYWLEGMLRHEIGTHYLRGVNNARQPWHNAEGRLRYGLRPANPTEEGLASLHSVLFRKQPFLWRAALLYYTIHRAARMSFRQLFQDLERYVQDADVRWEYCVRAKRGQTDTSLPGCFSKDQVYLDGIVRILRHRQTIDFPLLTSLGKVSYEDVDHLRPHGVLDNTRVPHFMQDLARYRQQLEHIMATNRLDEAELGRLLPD
The following applies: tubulin as substrate; ref Nicot et al., 2023; cited from earlier work. On the procedure: In addition, considering that TMCP1 is a metallocarboxypeptidase, its metal ion dependency was also assessed (Figure 4e). First, the metal ions present in the active site of TMCP1 were chelated with 50 μM EDTA. Subsequently, ZnCl₂, MnCl₂, or CoCl₂ were added at varying concentrations (>50 μM) to determine their impact on the restoration of enzymatic activity.

Data set [2] deals with T1, TMCP1. Description: TMCP1 FRET enzyme activity assay under altered conditions (inhibitors, salts, metal ions, buffers, competition; substrate FS2). It is filed as biochemical. To be noted: for Effect of divalent metal ion on TMCP1 activity (in words): TMCP1 pre-treated with 50 μM EDTA 10 min at room temperature, metal ion >50 μM, 30 min at 37 °C, then FS2. The protocol: Protein production and purification steps were previously described (Nicot et al., [2023]). Briefly, TMCP1 open Reading Frame (ORF) was cloned into pET28A+ to produce 6His N‐terminally tagged TMCP1. Transformed Escherichia coli strain BL21 Star (DE3) was grown at 37°C until the optical density (OD600) reached 0.6; then the culture was induced with 0.5 mM isopropyl‐β‐d‐thiogalactoside (IPTG) overnight at 18°C. Cells were pelleted for 15 min at 5000 g and resuspended in a 50 mM Tris–HCl buffer (pH 7.4), 500 mM NaCl, 2 mM TCEP, 0.1% Tween. Cell lysis was performed by sonication followed by centrifugation at 20,000×g for 30 min at 4°C. The supernatant was incubated with pre‐washed Ni‐NTA agarose beads (Qiagen) at 4°C for 2 h. Beads were washed extensively in lysis buffer supplemented with 20 mM imidazole and 0.1% Triton. Elutions were performed in a 50 mM Tris–HCl buffer (pH 7.5), 500 mM NaCl, 250 mM imidazole and 1 mM TCEP. The eluted fractions containing proteins were dialyzed overnight at 4°C against 50 mM Tris–HCl buffer (pH 7.5), 300 mM NaCl, 1 mM TCEP using 10 kDa dialysis cassettes. The dialyzed samples were then concentrated and buffer‐exchanged in a 50 mM Tris–HCl buffer (pH 7.5), 200 mM NaCl, 1 mM TCEP using 10 kDa Amicon centrifugal filter units (Amicon Ultra‐4 Merck Millipore). TMCP1 was then snap frozen and stored at −80°C in aliquots.
For each experiment, a fresh stock solution of the fluorescent peptide substrates (5 mM in DMSO), was prepared and protected from light. […] VASH2/SVPB was used at a final concentration of 235 nM, obtained by diluting a 94 μM stock solution (stored at −80°C) at a 1:400 ratio. Enzymatic kinetics experiments were performed in triplicate by measuring the fluorescence of the FRET peptide substrates cleaved by the two enzymes. The cleavage releases a nitro‐tyrosine residue, which acts as a quencher. Its removal leads to an increase of fluorescence, which was quantified fluorometrically (Ex/Em = 320/420 nm) using a SpectraMax i3x (Molecular Devices) microplate reader.
Data were analyzed using GraphPad Prism, with a dedicated curve fitting applied. A Gaussian bell‐shaped curve was used for the optimal pH study, and dose–response inhibition curves were generated by plotting the concentration of NaCl, EDTA, NS3, etc., against the normalized initial velocity (Vi) corresponding to enzyme activity. Data were normalized so that the curve ranged from 100 to 0% activity.
Optimal pH was established using a 50 mM Tris–HCl buffer, with the pH adjusted to the desired value (ranging 4–11) using 0.1 M NaOH or HCl solutions. For the ionic strength experiments, a 500 mM NaCl stock solution in a 50 mM Tris–HCl buffer was used as a starting point for serial dilution (500–0 mM). For EDTA analysis, a 10 mM stock solution was prepared and fully solubilized by vigorous stirring at 80°C. EDTA (0.004 to 400 μM) was then incubated with TMCP1, for 30 min at 37°C before adding the fluorescent substrate and starting the fluorescence measurement. Subsequently, an identical experiment was conducted using 2‐fold serial dilutions to refine the curve around the previously determined IC50.
For metal ion dependency assays, the enzyme was first incubated with 50 μM of EDTA for 10 min at room temperature. Then, serial dilutions were performed from 100 mM stock solutions of each metal ion (ZnCl₂, CoCl₂, and MnCl₂.).
Finally, the competition assay was performed similarly, except that the 96‐well plate was kept on ice during the serial dilution of the NS3 substrate and its addition into the wells.

A further data set concerns the target T2, VASH2/SVBP (Homo sapiens, UniProt Q86V25+Q8N300).
T2 construct: His (N); T7 (N); made in house; host or cells: Escherichia coli BL21 Star (DE3)
Briefly: VASH2 FRET inhibition assay (substrate FS2). Format: biochemical.

For a further data set, the system named is VASH1. Also on record: method as in Feral et al., 2025. The following applies: ref Feral et al., 2025; cited from earlier work.
Another data set has as its system VASH1/SVBP. Briefly: LC-MS analysis of NS3 cleavage by VASH1/SVBP. It is filed as biochemical.
Data set [3] has as its target Tubulin MetalloCarboxyPeptidase 1 (TMCP1) (UniProt Q68EN5).

T2 sequence (Q86V25 whole entry, species assumed): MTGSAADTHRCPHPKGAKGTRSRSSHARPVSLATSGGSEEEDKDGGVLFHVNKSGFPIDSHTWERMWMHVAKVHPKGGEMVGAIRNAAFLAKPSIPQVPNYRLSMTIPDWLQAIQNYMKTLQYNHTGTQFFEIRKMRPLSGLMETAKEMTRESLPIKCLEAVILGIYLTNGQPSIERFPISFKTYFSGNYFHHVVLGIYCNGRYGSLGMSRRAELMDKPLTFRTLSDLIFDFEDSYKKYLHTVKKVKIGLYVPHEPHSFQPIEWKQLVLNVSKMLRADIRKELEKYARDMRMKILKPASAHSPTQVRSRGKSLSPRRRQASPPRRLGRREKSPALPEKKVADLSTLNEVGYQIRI
T2 sequence (Q8N300 whole entry partner, species assumed): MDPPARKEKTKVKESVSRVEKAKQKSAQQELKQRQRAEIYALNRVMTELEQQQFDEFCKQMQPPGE
Protocol for VASH2/SVBP: Serial dilutions were prepared prior to enzyme addition (235 nM final concentration) to minimize time‐dependent inhibition effects and to avoid premature covalent modification of the enzyme during the dilution steps. […]

Consider `[Cl-].[Cl-].[Co+2]` [CoCl₂], for which the “Effect of metal ion on TMCP1 (immunoblot, in words)” value (“Effect of metal ion on TMCP1” below) on TMCP1 [1] is reported as “strongly activated”. The “Effect of divalent metal ion on TMCP1 activity (in words)” value (from here on “Effect of divalent metal ion”) is “highly effective not only at restoring but even increasing TMCP1 activity, although its effectiveness was reduced at higher concentrations” at TMCP1 [2] (n = 3) and “enhance its activity in a concentration‐dependent manner” at TMCP1 [2] (n = 3, listed as Co^2+).

In the case of `O=C(O)CN(CCN(CC(=O)O)CC(=O)O)CC(=O)O` [EDTA, reference compound], the IC50 on TMCP1 [2] was 2.15 µM.

In the case of `O=C(O)CN(CCOCCOCCN(CC(=O)O)CC(=O)O)CC(=O)O` [EGTA, reference compound], at TMCP1 [2] (1 mM EGTA in Tris-HCl buffer), the “TMCP1 activity with EGTA (in words)” value is listed as “complete loss of enzymatic activity”.

`CCOC(=O)C1OC1C(=O)N[C@@H](Cc1ccc(O)cc1)C(=O)O` (some centres unmarked) [EpoY] displayed an IC50 at VASH2/SVBP of 0.42 µM. In addition, the “VASH1 inhibition (in words)” value in the data set on VASH1 is “blocking VASH1”.

On to `[Cl-].[Cl-].[Mg+2]` [MgCl₂], for which, at TMCP1 [2] (80 mM PIPES with or without 1 mM MgCl₂, compared to 50 mM Tris-HCl), the “TMCP1 activity with MgCl₂ (in words)” value is given as “enzyme activity comparable to those obtained in 50 mM Tris–HCl”.

For `[Cl][Mn][Cl]` [MnCl₂], the “Effect of metal ion on TMCP1” value on TMCP1 [1] was “strongly activated”. Besides, the “Effect of divalent metal ion” value was “also restored the activity but unlike CoCl₂, it did so in a concentration‐dependent manner” at TMCP1 [2] (n = 3) and “enhance its activity in a concentration‐dependent manner” on TMCP1 [2] (n = 3, listed as Mn^2+).

Turning to `CC(=O)N[C@H](C(=O)N[C@@H](CCC(=O)O)C(=O)NCC(=O)N[C@@H](CCC(=O)O)C(=O)NCC(=O)N[C@@H](CCC(=O)O)C(=O)N[C@@H](CCC(=O)O)C(=O)N[C@@H](CCC(=O)O)C(=O)NCC(=O)N[C@@H](CCC(=O)O)C(=O)N[C@@H](CCC(=O)O)C(=O)N[C@@H](Cc1ccc(O)cc1)C(=O)O)C(C)C` [NS3] (Ac-VEGEGEEEGEEY-OH), the “Affinity relative to fluorescent peptide (in words)” value on TMCP1 [2] (NS3 vs FS2 (100 μM) in competition assay) is “slightly higher affinity”. For the same compound, the IC50 at TMCP1 [2] (read-out: IC50, TMCP1 competition by NS3) was around 62 µM. Moreover, in the data set with VASH1/SVBP, the “Cleavage of NS3 by VASH1 by LC-MS (in words)” value is listed as “no activity was detected”.

In the case of `[Cl-].[Na+]` [NaCl], the “Reduction in TMCP1 activity by NaCl” value at TMCP1 [2] (NaCl around 100 mM in 50 mM Tris-HCl, FS2, n = 3) was 50%. On TMCP1 [2] (NaCl concentrations above 200 mM, n = 3), the “Inhibition of TMCP1 by NaCl (in words)” value was “almost complete inhibition”.

In the case of `[Cl-].[Cl-].[Zn+2]` [ZnCl₂], the “Effect of metal ion on TMCP1” value at TMCP1 [1] is recorded as “inhibited”. In addition, the “Effect of divalent metal ion” value on TMCP1 [2] (n = 3) is on record as “did not restore the enzymatic activity”; on TMCP1 [2] (n = 3, listed as Zn^2+), “inhibits the enzyme”.

For “NS3 (natural substrate 3, non-fluorescent peptide of the last 12 amino acids of the α-tubulin C-terminal tail)”, the IC50 of the competing non-fluorescent peptide NS3 on cleavage of the fluorogenic substrate FS2 (100 μM) by TMCP1, real-time FRET enzymatic assay in data set [3] is 62 µM.

In general, IC50 refers to the concentration needed to halve the response being measured.
